Results published in the supplement of paper PMC10307832.

What was measured:
Assay in all cases: relative viability (nuclei count vs DMSO), 5 days (fraction); higher = more cells survive
BI-2536 + Decitabine = compound: CC[C@@H]1C(=O)N(C)c2cnc(Nc3ccc(C(=O)NC4CCN(C)CC4)cc3OC)nc2N1C1CCCC1 [BI-2536] + Nc1ncn([C@H]2C[C@H](O)[C@@H](CO)O2)c(=O)n1 [Decitabine] (partner 2 µM)
Summary of the method: (§1)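 Medians of duplicate plates are given as relative viability. That measure is the nuclei count in treated wells divided by the count in vehicle wells. Counts were taken on 4× images of lung cancer cell lines in 1536-well plates, 5 days after pin-tool dosing the day after seeding with one drug alone or a fixed anchor-drug dose plus five library-drug doses (not always all listed) in √10 steps.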

NPK76-II-72-1 + AZD7762 = compound: CC1CC(=O)N(C2=CN=C(N=C2N1C3CCCC3)NC4=C(C=C(C=C4)C(=O)NC5CCN(CC5)C)OC)C [NPK76-II-72-1] + NC(=O)Nc1cc(-c2cccc(F)c2)sc1C(=O)N[C@H]1CCCNC1 [AZD7762] (partner 0.2 µM)
Summary of the method: as §1

BI-2536 + Crizotinib = compound: CC[C@@H]1C(=O)N(C)c2cnc(Nc3ccc(C(=O)NC4CCN(C)CC4)cc3OC)nc2N1C1CCCC1 [BI-2536] + C[C@@H](Oc1cc(-c2cnn(C3CCNCC3)c2)cnc1N)c1c(Cl)ccc(F)c1Cl [Crizotinib] (partner 1 µM)
Summary of the method: as §1

[1] = compound: CC1CC(=O)N(C2=CN=C(N=C2N1C3CCCC3)NC4=C(C=C(C=C4)C(=O)NC5CCN(CC5)C)OC)C [NPK76-II-72-1] + CC(=O)c1c(C)c2cnc(Nc3ccc(N4CCNCC4)cn3)nc2n(C2CCCC2)c1=O [Palbociclib] (partner 0.5 µM)
Summary of the method: as §1

Cell Line	relative viability (BI-2536 + Decitabine; first compound 0.01 µM)	relative viability (BI-2536 + Decitabine; first compound 0.03162 µM)	relative viability (BI-2536 + Decitabine; first compound 0.1 µM)	relative viability (BI-2536 + Decitabine; first compound 0.3162 µM)	relative viability (BI-2536 + Decitabine; first compound 1 µM)	relative viability (NPK76-II-72-1 + AZD7762; first compound 0.01 µM)	relative viability (NPK76-II-72-1 + AZD7762; first compound 0.03162 µM)	relative viability (NPK76-II-72-1 + AZD7762; first compound 0.1 µM)	relative viability (NPK76-II-72-1 + AZD7762; first compound 0.3162 µM)	relative viability (NPK76-II-72-1 + AZD7762; first compound 1 µM)	relative viability (BI-2536 + Crizotinib; first compound 0.01 µM)	relative viability (BI-2536 + Crizotinib; first compound 0.03162 µM)	relative viability (BI-2536 + Crizotinib; first compound 0.1 µM)	relative viability (BI-2536 + Crizotinib; first compound 0.3162 µM)	relative viability (BI-2536 + Crizotinib; first compound 1 µM)	relative viability ([1]; first compound 0.01 µM)	relative viability ([1]; first compound 0.03162 µM)	relative viability ([1]; first compound 0.1 µM)	relative viability ([1]; first compound 0.3162 µM)	relative viability ([1]; first compound 1 µM)
NCI-H2347	0.595	0.736	0.589	0.506	0.414	0.805	0.755	0.646	0.704	0.883	0.675	0.692	0.675	0.345	0.445	0.388	0.425	0.389	0.433	0.465
NCI-H1993	0.61	0.601	0.436	0.42	0.405	0.739	0.706	0.97	0.713	0.914	0.945	0.906	0.621	0.57	0.693	0.629	0.647	0.616	0.563	0.682
NCI-H322M	0.69	0.64	0.649	0.462	0.451	0.532	0.504	0.52	0.655	0.52	0.992	0.721	0.92	0.346	0.308	0.485	0.492	0.48	0.482	0.47
NCI-H838	0.445	0.413	0.185	0.151	0.142	0.826	0.961	0.947	0.912	0.976	0.886	0.711	0.232	0.156	0.114	0.209	0.2	0.217	0.228	0.228
HARA	0.529	0.521	0.433	0.162	0.191	0.292	0.464	0.297		0.451	1.03	1.07	0.636	0.139	0.196	0.27	0.267	0.254	0.21	0.295
NCI-H2087	0.273	0.247	0.149	0.0727	0.0981	1.06	1.32	1.26	1.28	1.32	0.892	0.771	0.518	0.169	0.139	0.236	0.255	0.242	0.22	0.254
NCI-H1437	0.572	0.573	0.335	0.229	0.197	1.14	1.15	1.1	1.04	1.17	0.812	0.593	0.418	0.117	0.116	0.31	0.311	0.292	0.272	0.3
NCI-H1792	0.587	0.589	0.386	0.0865	0.0535		0.702	0.848	0.686	0.732	1.04	0.815	1.01	0.417	0.17	0.698		0.672	0.662	0.68
ChaGo-K-1	0.524	0.402	0.403	0.184	0.206	0.829	0.873	0.833	0.809	0.839	1.05	0.693	0.704	0.299	0.303	0.871	0.891	0.892	0.925	0.945
NCI-H650	0.303	0.328	0.246	0.146	0.126	1.13	0.997	0.97	0.896	0.995	0.597	0.347	0.271	0.21	0.17	0.332	0.366	0.3	0.303	0.356
LK-2	0.255	0.254	0.134	0.0869	0.137	0.367	0.42	0.439	0.323	0.379	0.245	0.237	0.202	0.177	0.245	0.624	0.636	0.668	0.653	0.565
201T	0.873	0.838	0.815	0.332	0.225	0.579	0.759	0.62	0.618	0.619	1.02	1.03	1	0.66	0.358	0.379	0.385	0.348	0.356	0.364
HCC-44	1.01	0.974	0.843	0.332	0.298	1.02	1.09	0.966	0.999	1.07	0.786	0.703	0.444	0.139	0.0857	0.982	1.08	0.993	0.935	1.01
H3255	0.565	0.374	0.428	0.16	0.299	0.841	0.815	0.959	0.655	0.988	0.909	0.763	0.515	0.196	0.24	0.351	0.319	0.305	0.3	0.304
NCI-H647	0.391	0.301	0.103	0.0938	0.135	0.4	0.476	0.578	0.434	0.379	1.15	0.418	0.425	0.113	0.115	0.31	0.351	0.424	0.362	0.506
NCI-H23	0.3	0.364	0.244	0.155	0.168	0.249	0.246	0.292	0.286	0.319	0.622	0.398	0.426	0.146	0.141	0.537	0.504	0.412	0.501	0.6
